Test results reported in the supplement of paper PMC10307832.

Assays:
Assay in all cases: relative viability (nuclei count vs DMSO), 5 days (fraction); higher = more cells survive
[1] = compound: CCN1CCC(CC1)N2C=C(N=N2)CNC3=CC4=C(C(=CN=C4C(=C3)Cl)C#N)NC5=CC(=C(C=C5)F)Cl [KIN001-266] + COc1cccc2cc(-c3nc([C@H]4CC[C@H](C(=O)O)CC4)n4ncnc(N)c34)[nH]c12 [OSI-027] (partner 0.5 µM)
Procedure, shortened: (§1)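 After 5 days of treatment, lung cancer cells in 1536-well plates were fixed and stained in a single step (final 0.05% Triton X-100, 1% formaldehyde, 1 ug/ml Hoechst) and their nuclei counted on 4× images. Treatment had been applied by pin tool the day after seeding as one drug alone or as a fixed anchor-drug dose with five library-drug doses (not always all listed) in √10 steps. Relative viability is the nuclei count of treated wells divided by that of vehicle wells, and values are medians of duplicate plates.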

[2] = compound: CCN1CCC(CC1)N2C=C(N=N2)CNC3=CC4=C(C(=CN=C4C(=C3)Cl)C#N)NC5=CC(=C(C=C5)F)Cl [KIN001-266] + C[C@@H](Oc1cc(-c2cnn(C3CCNCC3)c2)cnc1N)c1c(Cl)ccc(F)c1Cl [Crizotinib] (partner 1 µM)
Procedure, shortened: as §1

[3] = compound: CCN1CCC(CC1)N2C=C(N=N2)CNC3=CC4=C(C(=CN=C4C(=C3)Cl)C#N)NC5=CC(=C(C=C5)F)Cl [KIN001-266] + C[C@]1(O)C[C@@H](c2nc(-c3ccc4ccc(-c5ccccc5)nc4c3)c3c(N)nccn32)C1 [Linsitinib] (partner 1 µM)
Procedure, shortened: as §1

[4] = compound: CCN1CCC(CC1)N2C=C(N=N2)CNC3=CC4=C(C(=CN=C4C(=C3)Cl)C#N)NC5=CC(=C(C=C5)F)Cl [KIN001-266] + Cc1cc(Nc2cc(N3CCN(C)CC3)nc(Sc3ccc(NC(=O)C4CC4)cc3)n2)n[nH]1 [Tozasertib] (partner 0.1 µM)
Procedure, shortened: as §1

Cell Line	relative viability ([1]; first compound 0.08 µM)	relative viability ([1]; first compound 0.253 µM)	relative viability ([1]; first compound 0.8 µM)	relative viability ([1]; first compound 2.53 µM)	relative viability ([1]; first compound 8 µM)	relative viability ([2]; first compound 0.08 µM)	relative viability ([2]; first compound 0.253 µM)	relative viability ([2]; first compound 0.8 µM)	relative viability ([2]; first compound 2.53 µM)	relative viability ([2]; first compound 8 µM)	relative viability ([3]; first compound 0.08 µM)	relative viability ([3]; first compound 0.253 µM)	relative viability ([3]; first compound 0.8 µM)	relative viability ([3]; first compound 2.53 µM)	relative viability ([3]; first compound 8 µM)	relative viability ([4]; first compound 0.08 µM)	relative viability ([4]; first compound 0.253 µM)	relative viability ([4]; first compound 0.8 µM)	relative viability ([4]; first compound 2.53 µM)	relative viability ([4]; first compound 8 µM)
COR-L23	0.851	0.788	0.895	0.657	0.582	0.751	0.832	0.642	0.561	0.416	0.958	0.918	0.928	0.88	0.601	0.19	0.182	0.206	0.164	0.151
NCI-H1944	0.46	0.473	0.373	0.44	0.343	1.13	1.13	1.1	1.08	1.24	1.3	1.23	1.14	1.29	1.22	0.25	0.264	0.241	0.235	0.254
HCC-78	0.34	0.39		0.308	0.37	0.324	0.357	0.293	0.39	0.381	0.465	0.516	0.451	0.459	0.642	0.404	0.444		0.373	0.317
NCI-H2405	0.652	0.671	0.609	0.561	0.515	0.854	0.89	0.811	0.852	0.565	0.888	0.887	0.942	0.928	0.584	0.763	0.792	0.746	0.684	0.455
SK-LU-1	0.358	0.307	0.403	0.346	0.26	1.13	0.997	0.963	0.763	0.557	1.29	0.937	1.14	1.07	0.639	0.403	0.375	0.322	0.307	0.286
EMC-BAC-2	0.456	0.448	0.373	0.419	0.365	0.826	0.797	0.758	0.751	0.794	0.781	0.792	0.877	0.86	0.862	0.307	0.316	0.292	0.29	0.281
NCI-H596	0.858	0.635	0.616	0.638	0.529	0.989	1.21	0.895	1.08	0.925	1.08	1.14	1.06	1.07	0.812	0.882	0.893	0.881	0.925	0.786
LCLC-97TM1	0.636	0.69	0.45	0.557	0.532	0.327	0.289	0.242	0.21	0.24	0.226	0.197	0.18	0.176	0.192	0.196	0.209	0.186	0.171	0.223
H3255	0.555	0.618	0.52	0.542	0.606	0.883	0.874	0.777	0.811	0.71	0.841	1.03	0.884	0.841	0.713	0.699	0.601	0.502	0.499	0.512
LXF-289	0.788	0.843	0.775	0.788	0.678	0.819	0.801	0.77	0.826	0.76	0.931	0.945	0.878	0.968	0.935	0.186	0.236	0.172	0.201	0.189
UMC-11	0.426	0.485	0.511	0.455	0.367	0.577	0.538	0.504	0.637	0.335	0.944	1.01	1.08	0.981	1.09	0.209	0.215	0.213	0.219	0.213
LC-2-ad	0.844	0.94	0.825	0.776	0.77	0.43	0.546	0.377	0.447	0.429	0.879	0.842	0.924	0.808	0.873	0.451	0.409	0.516	0.444	0.447
SK-MES-1	0.694	0.676	0.575	0.573	0.474	1.02	1.09	0.948	0.923	0.888	1.17	1.08	1.01	1	0.902	0.944	0.869	0.934	0.756	0.66
A-427	0.492	0.478	0.499	0.475	0.48	0.905	0.701	0.776	0.746	0.636	1.12	1.2	1.09	1.06	1.13	0.24	0.21	0.178	0.186	0.181
NCI-H322M	0.56	0.598	0.593	0.458	0.579	0.796	0.968	0.957	0.819	0.843	0.957	0.987	0.897	0.855	0.83	0.451	0.554	0.513	0.433	0.458
HCC-366	1.14	0.977	0.936	0.826	0.412	0.52	0.514	0.478	0.482	0.5	0.547	0.607	0.821	0.476	0.545	0.156	0.286	0.0999	0.127	0.111

Cell Line	relative viability ([1]; first compound 0.08 µM)	relative viability ([1]; first compound 0.253 µM)	relative viability ([1]; first compound 0.8 µM)	relative viability ([1]; first compound 2.53 µM)	relative viability ([1]; first compound 8 µM)	relative viability ([2]; first compound 0.08 µM)	relative viability ([2]; first compound 0.253 µM)	relative viability ([2]; first compound 0.8 µM)	relative viability ([2]; first compound 2.53 µM)	relative viability ([2]; first compound 8 µM)	relative viability ([3]; first compound 0.08 µM)	relative viability ([3]; first compound 0.253 µM)	relative viability ([3]; first compound 0.8 µM)	relative viability ([3]; first compound 2.53 µM)	relative viability ([3]; first compound 8 µM)	relative viability ([4]; first compound 0.08 µM)	relative viability ([4]; first compound 0.253 µM)	relative viability ([4]; first compound 0.8 µM)	relative viability ([4]; first compound 2.53 µM)	relative viability ([4]; first compound 8 µM)
NCI-H1975	0.692	0.776	0.769	0.691	0.555	1.04	0.928	0.964	0.966	0.842	0.981	1.04	1.08	1.02	0.958	0.821	0.776	0.762	0.699	0.505
NCI-H1437	0.938	0.91	0.862	0.85	0.56	0.896	0.973	0.924	0.891	0.779	1.07	1	1.03	1.03	0.583	0.425	0.366	0.393	0.38	0.264
NCI-H2009	0.711	0.686	0.744	0.493	0.41	1.05	1.05	0.984	0.928	0.901	1.23	1.12	1.2	1.16	1.05	0.788	0.704	0.808	0.674	0.386
NCI-H1651	0.709	0.787	0.743	0.753	0.636	0.935	0.872	0.876	0.853	0.823	1.08	1.02	0.948	0.998	0.861	0.782	0.591	0.51	0.78	0.396
LCLC-103H	0.49	0.469	0.452	0.484	0.469	1.05	1.06	1.01	1.02	0.927	1.02	1.04	1.16	1.09	0.96	0.492	0.494	0.413	0.52	0.504
NCI-H1666	0.838	0.879	0.88	0.849	0.802	0.963	1.21	1.01	0.964	0.797	1.02	0.861	0.869	0.825	0.674	0.586	0.642	0.605	0.572	0.486
NCI-H1734	0.621	0.583	0.578	0.549	0.522	0.647	0.601	0.589	0.681	0.51	0.812	0.876	0.735	0.848	0.856	0.256	0.295	0.279	0.232	0.243
EPLC-272H	0.306	0.303	0.242	0.249	0.264	0.939	0.862	0.752	0.943	0.656	1.26	1.34	0.842	1.15	1.16	0.258	0.377	0.383	0.244	0.208
NCI-H2023	0.449	0.437	0.379	0.368	0.241	0.732	0.603	0.576	0.648	0.459	0.696	0.706	0.696	0.617	0.481	0.39	0.341	0.419	0.292	0.184
BEN	0.296	0.335	0.305	0.274	0.283	0.756	0.815	0.948	0.811	1.04	0.892	0.919	0.914	1.04	0.978	0.479	0.534	0.491	0.484	0.506
COR-L 105	0.683	0.822	0.66	0.645	0.576	0.817	0.962	0.82	0.969	0.726	0.974	0.932	0.991	0.93	0.846	0.388	0.322	0.381	0.342	0.296
ABC-1	0.649	0.436	0.622	0.392	0.375	1.29	1.31	1.26	1.04	0.435	1.1	0.788	0.945	0.76	0.713	0.156	0.227	0.199	0.166	0.204
HCC-15	0.71	0.699	0.63	0.524	0.518	0.778	0.821	0.738	0.626	0.565	0.812	0.886	0.761	0.734	0.7	0.443	0.358	0.25	0.24	0.19
PC-3 [JPC-3]	0.764	0.776	0.688	0.755	0.751	0.986	0.911	0.872	0.952	0.896	0.99	0.934	0.941	0.958	0.896	0.844	0.916	0.774	0.815	0.788
NCI-H1993	0.562	0.537	0.607	0.582	0.63	0.954	0.858	0.982	0.815	0.776	0.714	0.657	0.828	0.687	0.797	0.596	0.563	0.574	0.567	0.553
